Reference: patent US20060135589A1, “1h-Indazole-3-carboxamide compounds as cyclin dependent kinase (cdk) inhibitors” (Astex Technology, Inc., priority 2002, published 2006)

target: T1, CDK2/CyclinA (Homo sapiens, UniProt P24941); assay: Measurement of CDK2 kinase inhibitory activity (IC50), 33P-ATP / histone H1 filter assay; format: biochemical
T1 construct: purchased Upstate Biotechnology
Experimental: Measurement of CDK2 Kinase Inhibitory Activity (IC50)
Compounds of the invention were tested for kinase inhibitory activity using the following protocol.
1.7 μl of active CDK2/CyclinA (Upstate Biotechnology, 10 U/μl) is diluted in assay buffer (250 μl of 10× strength assay buffer (200 mM MOPS pH 7.2, 250 mM β-glycerophosphate, 50 mM EDTA, 150 mM MgCl2), 11.27 μl 10 mM ATP, 2.5 μl 1M DTT, 25 μl 100 mM sodium orthovanadate, 708.53 μl H2O), and 10 μl mixed with 10 μl of histone substrate mix (60 μl bovine histone H1 (Upstate Biotechnology, 5 mg/ml), 940 μl H2O, 35 μCi γ^33P-ATP) and added to 96 well plates along with 5 μl of various dilutions of the test compound in DMSO (up to 2.5%). The reaction is allowed to proceed for 5 hours before being stopped with an excess of ortho-phosphoric acid (30 μl at 2%).
γ^33P-ATP which remains unincorporated into the histone H1 is separated from phosphorylated histone H1 on a Millipore MAPH filter plate. The wells of the MAPH plate are wetted with 0.5% orthophosphoric acid, and then the results of the reaction are filtered with a Millipore vacuum filtration unit through the wells. Following filtration, the residue is washed twice with 200 μl of 0.5% orthophosphoric acid. Once the filters have dried, 25 μl of Microscint 20 scintillant is added, and then counted on a Packard Topcount for 30 seconds.

Inhibition at 50 µM, ≥ 50%:
O=C(Nc1ccc(F)cc1)c1n[nH]c2ccccc12 [Example 70, 1H-Indazole-3-carboxylic acid (4-fluoro-phenyl)-amide]
O=C(Nc1ccccc1)c1n[nH]c2ccc(I)cc12 [Example 11, N-phenyl-5-iodo-1H-indazole-3-carboxamide]
O=C(Nc1ccccc1)c1n[nH]c2ccccc12 [Example 27]
N=C(N)NS(=O)(=O)c1ccc(NC(=O)c2n[nH]c3ccccc23)cc1 [Example 36]
CC(=O)Nc1ccc(NC(=O)c2n[nH]c3ccc(I)cc23)cn1 [Example 59]
NS(=O)(=O)c1ccc(NC(=O)c2n[nH]c3ccc([N+](=O)[O-])cc23)cc1 [Example 18, 5-Nitro-1H-indazole-3-carboxylic acid (4-sulphamoyl-phenyl)-amide]
CC(=O)NCc1ccc(NC(=O)c2n[nH]c3ccc(Cl)cc23)cc1 [Example 65, 5-Chloro-1H-indazole-3-carboxylic acid [4-(acetylamino-methyl)-phenyl]-amide]
N#Cc1ccc(NC(=O)c2n[nH]c3ccc(I)cc23)cn1 [Example 48]
O=C(Nc1cccnc1)c1n[nH]c2ccc(I)cc12 [Example 40]
CN1CCC(NC(=O)c2n[nH]c3ccc(Cl)cc23)CC1 [Example 43]
O=C(Nc1ccc(N2CCOCC2)cc1)c1n[nH]c2ccccc12 [Example 54]
CS(=O)(=O)c1cccc(NC(=O)c2n[nH]c3ccc(I)cc23)c1 [Example 14, N-(3-methanesulphonylphenyl)-5-iodo-1H-indazole-3-carboxamide]
O=C(Nc1ccccc1)c1n[nH]c2ccc(N3CCCC3)cc12 [Example 84, 5-pyrrolidin-1-yl-1H-indazole-3-carboxylic acid phenylamide]
O=C(Nc1cccnc1)c1n[nH]c2ccc(Cl)cc12 [Example 47]
O=C(Nc1ccc(-c2c[nH]cn2)cc1)c1n[nH]c2ccccc12 [Example 8, N-[4-(1H-imidazol-4-yl)phenyl]-1H-indazole-3-carboxamide]
CCOC(=O)N1CCC(NC(=O)c2n[nH]c3ccc(Cl)cc23)CC1 [Example 38]
CNS(=O)(=O)Cc1ccc(NC(=O)c2n[nH]c3ccc(Cl)cc23)cc1 [Example 25, 5-Chloro-1H-indazole-3-carboxylic acid (4-methylsulphamoylmethyl-phenyl)-amide]
CC(=O)NCc1ccc(NC(=O)c2n[nH]c3ccc(I)cc23)cc1 [Example 15, N-[4-(acetylaminomethyl)phenyl]-5-iodo-1H-indazole-3-carboxamide]
O=C(NC1CCOCC1)c1n[nH]c2ccc(Cl)cc12 [Example 42]
CC(=O)NCc1ccc(NC(=O)c2n[nH]c3ccccc23)cc1 [Example 5, N-[4-(acetylaminomethyl)phenyl]-1H-indazole-3-carboxamide]
O=C(Nc1ccc(Cl)nc1)c1n[nH]c2ccc(I)cc12 [Example 56]
CNS(=O)(=O)Cc1ccc(NC(=O)c2n[nH]c3ccc([N+](=O)[O-])cc23)cc1 [Example 19, 5-Nitro-1H-indazole-3-carboxylic acid (4-methylsulphamoylmethyl-phenyl)-amide]
CNS(=O)(=O)Cc1ccc(NC(=O)c2n[nH]c3ccc(-c4ccco4)cc23)cc1 [Example 23, 5-Furan-2-yl-1H-indazole-3-carboxylic acid (4-methylsulphamoylmethyl-phenyl)-amide]
CNS(=O)(=O)Cc1ccc(NC(=O)c2n[nH]c3ccc(-c4cc5ccccc5o4)cc23)cc1 [Example 24, 5-Benzofuran-2-yl-1H-indazole-3-carboxylic acid (4-methylsulphamoylmethyl-phenyl)-amide]
CNS(=O)(=O)Cc1ccc(NC(=O)c2n[nH]c3ccc(-c4c(C)noc4C)cc23)cc1 [Example 22, 5-(3,5-Dimethyl-isoxazol-4-yl)-1H-indazole-3-carboxylic acid (4-methylsulphamoylmethyl-phenyl)-amide]
O=C(Nc1ccccc1)c1n[nH]c2ccc(N3CCOCC3)cc12 [Example 17, 5-Morpholin-4-yl-1H-indazole-3-carboxylic acid phenylamide]
O=C(Nc1ccccc1)c1n[nH]c2ccc(Cl)cc12 [Example 49]
Nc1ccc2[nH]nc(C(=O)Nc3ccccc3)c2c1 [Example 60, 5-Amino-1H-indazole-3-carboxylic acid phenylamide]
O=C(Nc1cnc2ccccc2c1)c1n[nH]c2ccc(I)cc12 [Example 41]
Cc1ccc(NC(=O)c2n[nH]c3ccc(I)cc23)nn1 [Example 50]
O=C(Nc1ccc(S(=O)(=O)Nc2nccs2)cc1)c1n[nH]c2ccccc12 [Example 31]
NS(=O)(=O)c1ccc(NC(=O)c2n[nH]c3ccc(I)cc23)cc1 [Example 12, N-(4-aminosulphonylphenyl)-5-iodo-1H-indazole-3-carboxamide]
